Measurements taken from patent US20220227765A1, “PYRIDO-INDOLE ANALOGUES AS GPX4 INHIBITORS” (Ferro Therapeutics, Inc., priority 2019, published 2022).
Read-outs that look alike come from different tables or passages of the source.

Tests used:
Type in all cases: cell-based, human
[1] = test system: 786-O; experiment: Cell proliferation (Alamar Blue) assay, 786-O; settings: Table B-3, 786-O cells
Description: (§1) Cell viability assay was performed to assess the potency of the compounds in human cancer cell lines 786-0 (renal cell carcinoma) and SJSA-1 (osteosarcoma). Additional cell lines, such as pancreatic cancer cell lines (Panc 02.13, BxPC-3, Panc 12, Panc 02.03, Panc 6.03, PSN-1, HPAC, and Capan-1), prostate cancer cell lines (PC-3, DU145, 22Rv1, NCI-H660, BPH1, LNCaP, BM-1604, and MDA PCa 2b), etc., can be tested in a similar method.
(§2) Cells (SJSA-1, 786-0 and A431) were seeded (5000 cells/100 μL/well) in 96-well tissue culture plate and incubated at 37° C./5% CO2 for 16-24 hours. The cells were then treated with compounds (25 μL of 5×). The compound concentrations were 10-0.0005 μM prepared in 3-fold serial dilutions with final DMSO concentration of 1%. The plates were then incubated for 24 h at 37° C./5% CO2 in a moist environment. Then Alamar Blue™ reagent (final concentration 1×-12.5 μL) was added to each well and incubated for 1.5 hours at 37° C./5% CO2. The plates were read on fluorescence reader at 540 nm excitation and 590 nm emission wavelengths. The IC50 values were subsequently determined using a sigmoidal dose-response curve (variable slope) in GraphPad Prism® 5 software. Table A-3, Table B-3 and Table C-3 show cell proliferation data for certain compounds as described herein.

[2] = test system: SJSA-1; experiment: Cell proliferation (Alamar Blue) assay, SJSA-1; settings: Table B-3, head prints SJSB-1, 24 h, read-out: IC50 (μM) SJSB-1
Description: as §1, §2

[3] = test system: A431; experiment: Cell proliferation (Alamar Blue) assay, A431; settings: Table B-3, A431 cells
Description: as §1, §2

Row | SMILES | IC50 ([1]; 24 h) | IC50 [2] | IC50 ([3]; 24 h) | IC50 ([1]; Homo sapiens, 786-0, 24 h) | IC50 ([2]; Homo sapiens, SJSA-1, 24 h) | IC50 ([3]; Homo sapiens, A-431, 24 h)
1 | C#CC(=O)N1[C@@H](CCCC)Cc2c([nH]c3c(F)cc(F)cc23)[C@@H]1c1nccn1C [Compound B-24] |  |  |  | 0.123 µM | 0.167 µM | > 10 µM
2 | C#CC(=O)N1[C@@H](CCCC)Cc2c([nH]c3c(F)cc(F)cc23)[C@@H]1c1ccc(N2CCN(C)CC2)cc1 [Compound B-57] |  |  |  | 0.059 µM | 0.063 µM | > 10 µM
3 | C#CC(=O)N1[C@@H](CCCC)Cc2c([nH]c3c(F)cc(F)cc23)[C@@H]1c1ccc(N2CCN(C)CC2)c(C#N)c1 [Compound B-58] |  |  |  | 0.135 µM | 0.15 µM | > 10 µM
4 | C#CC(=O)N1[C@@H](CCCC)Cc2c([nH]c3c(F)cc(F)cc23)[C@@H]1c1ccc(N2CCC2)cc1 [Compound B-59] |  |  |  | 0.011 µM | 0.016 µM | > 10 µM
5 | C#CC(=O)N1[C@@H](CCCC)Cc2c([nH]c3c(F)cc(F)cc23)[C@@H]1c1ccc(N2CCC2)c(C#N)c1 [Compound B-60] |  |  |  | 0.31 µM | 0.706 µM | > 10 µM
6 | C#CC(=O)N1[C@@H](CC)Cc2c([nH]c3c(F)cc(F)cc23)[C@@H]1c1ccc(F)cc1 [Compound B-61] |  |  |  | 0.062 µM | 0.068 µM | > 10 µM
7 | C#CC(=O)N1[C@@H](CCCC)Cc2c([nH]c3c(F)cc(F)cc23)[C@@H]1C(C)C [Compound B-72] |  |  |  | 0.222 µM | 0.223 µM | > 10 µM
8 | C#CC(=O)N1[C@@H](CCCC)Cc2c([nH]c3c(F)cc(F)cc23)[C@@H]1CCC [Compound B-73] |  |  |  | 0.14 µM | 0.22 µM | > 10 µM
9 | C#CC(=O)N1[C@@H](CCCC)Cc2c([nH]c3c(F)cc(F)cc23)[C@@H]1CCCC [Compound B-74] |  |  |  | 0.05 µM | 0.04 µM | 4.4 µM
10 | C#CC(=O)N1[C@@H](CCCC)Cc2c([nH]c3c(F)cc(F)cc23)[C@@H]1C1CCC(=O)CC1 [Compound B-76] |  |  |  | 0.168 µM | 0.247 µM | > 10 µM
11 | C#CC(=O)N1[C@@H](CCCC)Cc2c([nH]c3c(F)cc(F)cc23)[C@@H]1C1CCC(O)CC1 (stereo partly drawn) [Compound B-77] |  |  |  | 0.166 µM | 0.16 µM | 6.57 µM
12 | C#CC(=O)N1[C@@H](CCCC)Cc2c([nH]c3c(F)cc(F)cc23)[C@@H]1CCCCCCCC [Compound B-79] |  |  |  | 0.07 µM | 0.08 µM | 9.4 µM
13 | C#CC(=O)N1[C@@H](CCCC)Cc2c([nH]c3c(F)cc(F)cc23)[C@@H]1COCCOC [Compound B-80] |  |  |  | 0.043 µM | 0.093 µM | 6.8 µM
14 | C#CC(=O)N1[C@@H](CCCC)Cc2c([nH]c3c(F)cc(F)cc23)[C@@H]1CC(C)C [Compound B-82] |  |  |  | 0.2 µM | 0.16 µM | > 10 µM
15 | CCCC[C@H]1Cc2c([nH]c3c(F)cc(F)cc23)[C@H](C23CC(N)(C2)C3)N1C(=O)CCl [Compound B-83] |  |  |  | 0.12 µM | 0.12 µM | > 10 µM
16 | CCCC[C@H]1Cc2c([nH]c3c(F)cc(F)cc23)[C@H](c2ccc(N)cc2)N1C(=O)CCl [Compound B-85] |  |  |  | 0.012 µM | 0.024 µM | > 10 µM
17 | C#CC(=O)N1[C@@H](CCCC)Cc2c([nH]c3c(F)cc(F)cc23)[C@@H]1c1ccc(NC(=O)OCCCC(=O)O)cc1 [Compound B-86] |  |  |  | 0.227 µM | 0.239 µM | > 10 µM
18 | C#CC(=O)N1[C@@H](CCCC)Cc2c([nH]c3c(F)cc(F)cc23)[C@@H]1c1ccc(NC(=O)CCCCC(=O)O)cc1 [Compound B-87] |  |  |  | > 10 µM | > 10 µM | > 10 µM
19 | CCCCCOC(=O)Nc1ccc([C@H]2c3[nH]c4c(F)cc(F)cc4c3C[C@H](CCCC)N2C(=O)CCl)cc1 [Compound B-89] |  |  |  | 0.008 µM | 0.002 µM | > 10 µM
20 | CCCCCOC(=O)NC12CC([C@H]3c4[nH]c5c(F)cc(F)cc5c4C[C@H](CCCC)N3C(=O)CCl)(C1)C2 [Compound B-90] |  |  |  | 0.013 µM | 0.03 µM | > 10 µM
21 | C#CC(=O)N1[C@@H](CCCC)Cc2c([nH]c3ccccc23)[C@@H]1CCCCC [Compound B-92] |  |  |  | 0.137 µM | 0.17 µM | > 10 µM
22 | C#CC(=O)N1[C@@H](CCCC)Cc2c([nH]c3ccccc23)[C@@H]1CCCCCC [Compound B-93] |  |  |  | 0.091 µM | 0.077 µM | > 10 µM
23 | C#CC(=O)N1[C@@H](CCCC)Cc2c(n(CC#N)c3c(F)cc(F)cc23)[C@@H]1c1ccc(NC(=O)OCCCCC)cc1 [Compound B-97] |  |  |  | 0.071 µM | 0.0455 µM | 6.35 µM
24 | C#CC(=O)N1[C@@H](CCCC)Cc2c([nH]c3c(F)cc(F)cc23)[C@@H]1C1CCC2(CC1)OCCO2 [Compound B-99] |  |  |  | 0.207 µM | 0.504 µM | > 10 µM
25 | C#CC(=O)N1[C@@H](CCCC)Cc2c(sc3ccccc23)[C@@H]1c1ccc(NC(=O)OCCCCC)cc1 [Compound B-100] |  |  |  | 0.0285 µM | 0.04 µM | 7.84 µM

Other lines, results leading:

Row | IC50 ([1]; 24 h) | IC50 [2] | IC50 ([3]; 24 h) | IC50 ([1]; Homo sapiens, 786-0, 24 h) | IC50 ([2]; Homo sapiens, SJSA-1, 24 h) | IC50 ([3]; Homo sapiens, A-431, 24 h) | SMILES
26 | 0.006 µM | 0.008 µM | 3.6 µM |  |  |  | C#CC(=O)N1[C@@H](CCCC)Cc2c([nH]c3ccccc23)[C@@H]1c1ccc(NC23CC4CC(CC(C4)C2)C3)cc1 [Compound B-17]
27 |  |  | 7.8 µM | 0.005 µM | 0.006 µM |  | C#CC(=O)N1[C@@H](CCCC)Cc2c([nH]c3ccccc23)[C@@H]1c1ccc(NC23CC4CC(CC(C4)C2)C3)cc1 [Compound B-18]
28 |  |  |  | 0.367 µM | 0.294 µM | > 10 µM | C#CC(=O)N1[C@@H](CCCC)Cc2c([nH]c3ccccc23)[C@@H]1c1ccc(C(=O)NCCn2ccnc2)cc1 [Compound B-19]
29 |  |  |  | 0.0002 µM | 0.001 µM | 3.8 µM | C#CC(=O)N1C(CCCC)Cc2c([nH]c3ccccc23)[C@@H]1c1ccc(CNCC23CC4CC(CC(C4)C2)C3)cc1 (stereo partly drawn) [Compound B-45A]
30 |  |  |  | 0.005 µM | 0.011 µM | 1.7 µM | C#CC(=O)N1C(CCCC)Cc2c([nH]c3ccccc23)[C@H]1c1ccc(CNCC23CC4CC(CC(C4)C2)C3)cc1 (stereo partly drawn) [Compound B-45B]
31 |  |  |  | 0.029 µM | 0.021 µM | 6.4 µM | C#CC(=O)N1C(c2ccn(-c3ccc(F)cc3)n2)c2[nH]c3ccccc3c2C[C@@H]1CCCC (stereo partly drawn) [Compound B-62]
32 |  |  |  | 0.061 µM | 0.059 µM | 5.8 µM | C#CC(=O)N1C(c2ccn(C34CC5CC(CC(C5)C3)C4)n2)c2[nH]c3ccccc3c2C[C@@H]1CCCC (stereo partly drawn) [Compound B-63]
33 |  |  |  | 0.008 µM | 0.012 µM | 4.45 µM | C#CC(=O)N1[C@@H](CCCC)Cc2c([nH]c3ccc(F)cc23)[C@@H]1c1ccc(NC23CC4CC(CC(C4)C2)C3)cc1 [Compound B-64]
34 |  |  |  | 0.015 µM | 0.016 µM | 3.53 µM | C#CC(=O)N1[C@@H](CCCC)Cc2c([nH]c3c(F)cc(F)cc23)[C@@H]1c1ccc(NC23CC4CC(CC(C4)C2)C3)cc1 [Compound B-65]
35 |  |  |  | 0.006 µM | 0.0025 µM | 2 µM | C#CC(=O)N1[C@@H](CCC)Cc2c([nH]c3ccccc23)[C@@H]1c1ccc(NC23CC4CC5CC(C2)C54C3)cc1 (stereo partly drawn) [Compound B-67]
36 |  |  |  | 0.045 µM | 0.0715 µM | > 10 µM | C#CC(=O)N1[C@@H](CCCC)Cc2c([nH]c3ccccc23)[C@@H]1c1ccc(NC2CCCC2)cc1 [Compound B-68]
37 |  |  |  | 0.047 µM | 0.036 µM | > 1 µM | C#CC(=O)N1[C@@H](CCCC)Cc2c([nH]c3ccccc23)[C@@H]1c1ccc(N2CCC3(COC3)C2)cc1 [Compound B-69, 1-((1S,3S)-1-(4-(2-oxa-6-azaspiro[3.4]octan-6-yl)phenyl)-3-butyl-1,3,4,9-tetrahydro-2H-pyrido[3,4-b]indol-2-yl)prop-2-yn-1-one]
38 |  |  |  | 0.0165 µM | 0.066 µM | 4.76 µM | C#CC(=O)N1[C@@H](CCCC)Cc2c(n(C)c3ccccc23)[C@@H]1c1ccc(NC23CC4CC(CC(C4)C2)C3)cc1 [Compound B-70, 1-((1S,3S)-1-(4-(((1R,3R,5S)-adamantan-1-yl)amino)phenyl)-3-butyl-9-methyl-1,3,4,9-tetrahydro-2H-pyrido[3,4-b]indol-2-yl)prop-2-yn-1-one]
39 |  |  |  | 0.042 µM | 0.056 µM | > 10 µM | C#CC(=O)N1[C@@H](CCCC)Cc2c([nH]c3ccccc23)[C@@H]1c1ccc(NC2CCCCC2)cc1 [Compound B-71]
40 |  |  |  | 1.06 µM | 1.37 µM | > 10 µM | C#CC(=O)N1[C@@H](CCCC)Cc2c([nH]c3ccccc23)[C@@H]1C12CC3CC(CC(C3)C1)C2 [Compound B-94]
41 |  |  |  | 0.32 µM | 0.74 µM | > 10 µM | C#CC(=O)N1C(CCCC)Cc2c([nH]c3ccccc23)[C@@H]1c1ccc(C(O)CO)cc1 (stereo partly drawn) [Compound B-95]
